The source of these data is patent publication US20240400564A1 (Syndax Pharmaceuticals, Inc, priority 2021, published 2024).

For this experiment, the target named is T1, human Menin and N-terminal portion of human MLL (amino acids 4-43) (Homo sapiens, UniProt O00255).
T1 construct: H-FL-Menin diluted to 4 nM in assay buffer
T1 sequence (O00255 1-610): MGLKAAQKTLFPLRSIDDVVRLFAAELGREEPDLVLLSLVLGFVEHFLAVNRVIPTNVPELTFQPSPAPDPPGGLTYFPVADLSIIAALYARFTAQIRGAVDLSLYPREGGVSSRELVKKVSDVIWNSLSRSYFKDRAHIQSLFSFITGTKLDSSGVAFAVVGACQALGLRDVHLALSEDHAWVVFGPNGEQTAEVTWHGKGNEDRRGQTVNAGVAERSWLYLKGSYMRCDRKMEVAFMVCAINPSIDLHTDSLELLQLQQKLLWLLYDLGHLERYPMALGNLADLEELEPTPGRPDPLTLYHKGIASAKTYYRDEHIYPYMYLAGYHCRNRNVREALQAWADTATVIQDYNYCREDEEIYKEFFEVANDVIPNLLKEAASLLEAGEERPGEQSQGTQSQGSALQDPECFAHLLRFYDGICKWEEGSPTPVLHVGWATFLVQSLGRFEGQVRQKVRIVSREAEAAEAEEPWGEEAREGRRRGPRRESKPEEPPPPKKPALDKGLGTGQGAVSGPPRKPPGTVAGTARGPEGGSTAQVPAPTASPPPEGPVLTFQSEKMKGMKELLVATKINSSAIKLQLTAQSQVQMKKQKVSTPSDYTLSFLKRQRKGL
Put plainly: Menin-MLL competition assay (HTRF). The format is binding. To be noted: 1 hr incubation. The source says:
Menin-MLL is a competition assay between human Menin and N-terminal portion of human MLL representing amino acids 4-43 of the protein. The interaction between Menin and MLL peptide was monitored by HTRF employing Terbium labeled anti-His6 antibody directed to the N-terminal His6-tag on recombinant Menin and FITC group covalently attached to the MLL peptide. The N-terminal fragment of MLL, retained in all MLL fusion proteins, is involved in the interactions with Menin, and this protein-protein interaction is critical for the MLL fusion proteins mediated leukemogenic transformations.
For IC50 determination test compounds were prepared as 10 mM DMSO stock solutions. Considering DMSO as the vehicle in the assay system. Lower sub-stocks of 50 μM were prepared from the 10 mM stock solution. To test the compounds in assay, 3.16-fold serial dilutions are made in 100% DMSO. Mid-stock of 50×compounds (50 μM) were serially diluted (3.16 fold) in 100% DMSO in Polypropylene plate. In assay plate 1 micro-litre of the previously prepared compound dilution was stamped. H-FL-Menin diluted to 4 nM in assay buffer (50 mM Tris-HCl, pH 7.4, 50 mM NaCl, freshly prepared 1 mM DTT, 0.01% BSA, 0.005% Triton X-100) was pre-incubated with 8 nM anti-His6-Tb for 30 min at room temperature. FITC-MLL-4-43 was diluted to 2 nM in assay buffer and 25 μL was dispensed into each well of the assay plate followed by addition of 25 μl of pre-incubated H-FL-Menin and anti-His6-Tb mixture. Final concentration H-FL-Menin diluted to 1 nM in assay plate with 2 nM anti-His6-Tb and 1 nM FITC-MLL-4-43. After 1 hr incubation at room temperature, the HTRF signal was measured on the Spark multi-label plate reader. Resulting data were captured as a ratio of RFU520/RFU485×1000. The max values were obtained from 0% inhibition in presence of 2% DMSO and the min. values were 100% inhibition in presence of 1 μM reference compound.
(In TR-FRET formats the signal depends on donor and acceptor labels being close together.)
In the case of `CCS(=O)(=O)N[C@@H]1CC[C@@H](CN2CCC3(CC2)CN(c2ncncc2Oc2ccc(F)cc2C(=O)N2[C@H](C)COC[C@@H]2C)C3)OC1` [Example 24, N-((3R,6S)-6-((2-(5-(2-((3S,5R)-3,5-dimethylmorpholine-4-carbonyl)-4-fluorophenoxy)pyrimidin-4-yl)-2,7-diazaspiro[3.5]nonan-7-yl)methyl)tetrahydro-2H-pyran-3-yl)ethanesulfonamide], the IC50 (commonly the concentration that gives 50% inhibition) is < 100 nM.

Turning to `CC(C)S(=O)(=O)N[C@@H]1CC[C@@H](CN2CCC3(CC2)CN(c2ncncc2Oc2ccc(F)cc2C(=O)N2[C@H](C)COC[C@@H]2C)C3)OC1` [Example 25, N-((3R,6S)-6-((2-(5-(2-((3S,5R)-3,5-Dimethylmorpholine-4-carbonyl)-4-fluorophenoxy)pyrimidin-4-yl)-2,7-diazaspiro[3.5]nonan-7-yl)methyl)tetrahydro-2H-pyran-3-yl)propane-2-sulfonamide], the IC50 was < 100 nM. On to `C[C@@H]1COC[C@H](C)N1C(=O)c1cc(F)ccc1Oc1cncnc1N1CC2(CCN(C[C@@H]3CC[C@@H](NS(=O)(=O)C4CC4)CO3)CC2)C1` [Example 26, N-((3R,6S)-6-((2-(5-(2-((3S,5R)-3,5-Dimethylmorpholine-4-carbonyl)-4-fluorophenoxy)pyrimidin-4-yl)-2,7-diazaspiro[3.5]nonan-7-yl)methyl)tetrahydro-2H-pyran-3-yl)cyclopropanesulfonamide], for which the IC50 was < 100 nM. In the case of `C[C@@H]1COC[C@H](C)N1C(=O)c1cc(F)ccc1Oc1cncnc1N1CC2(CCN(C[C@@H]3CC[C@@H](NS(=O)(=O)C4COC4)CO3)CC2)C1` [Example 27, N-((3R,6S)-6-((2-(5-(2-((3S,5R)-3,5-Dimethylmorpholine-4-carbonyl)-4-fluorophenoxy)pyrimidin-4-yl)-2,7-diazaspiro[3.5]nonan-7-yl)methyl)tetrahydro-2H-pyran-3-yl)oxetane-3-sulfonamide], the IC50 was < 100 nM.

Turning to `C[C@@H]1COC[C@@H](C)N1C(=O)c1cc(F)ccc1Oc1cncnc1N1CC2(CCN(C[C@@H]3CC[C@@H](NS(C)(=O)=O)CO3)CC2)C1` [Example 28, N-((3R,6S)-6-((2-(5-(2-((3R,5R)-3,5-Dimethylmorpholine-4-carbonyl)-4-fluorophenoxy)pyrimidin-4-yl)-2,7-diazaspiro[3.5]nonan-7-yl)methyl)tetrahydro-2H-pyran-3-yl)methanesulfonamide], the IC50 is < 100 nM. For the compound `CCS(=O)(=O)N[C@@H]1CC[C@@H](CN2CCC3(CC2)CN(c2ncncc2Oc2ccc(F)cc2C(=O)N2[C@H](C)COC[C@H]2C)C3)OC1` [Example 29, N-((3R,6S)-6-((2-(5-(2-((3R,5R)-3,5-Dimethylmorpholine-4-carbonyl)-4-fluorophenoxy)pyrimidin-4-yl)-2,7-diazaspiro[3.5]nonan-7-yl)methyl)tetrahydro-2H-pyran-3-yl)ethanesulfonamide], the IC50 is < 100 nM. As for `CC(C)S(=O)(=O)N[C@@H]1CC[C@@H](CN2CCC3(CC2)CN(c2ncncc2Oc2ccc(F)cc2C(=O)N2[C@H](C)COC[C@H]2C)C3)OC1` [Example 30, N-((3R,6S)-6-((2-(5-(2-((3R,5R)-3,5-Dimethylmorpholine-4-carbonyl)-4-fluorophenoxy)pyrimidin-4-yl)-2,7-diazaspiro[3.5]nonan-7-yl)methyl)tetrahydro-2H-pyran-3-yl)propane-2-sulfonamide], the IC50 was < 100 nM. With `C[C@@H]1COC[C@@H](C)N1C(=O)c1cc(F)ccc1Oc1cncnc1N1CC2(CCN(C[C@@H]3CC[C@@H](NS(=O)(=O)C4CC4)CO3)CC2)C1` [Example 31, N-((3R,6S)-6-((2-(5-(2-((3R,5R)-3,5-dimethylmorpholine-4-carbonyl)-4-fluorophenoxy)pyrimidin-4-yl)-2,7-diazaspiro[3.5]nonan-7-yl)methyl)tetrahydro-2H-pyran-3-yl)cyclopropanesulfonamide], the IC50 was < 100 nM.

With `C[C@@H]1COC[C@@H](C)N1C(=O)c1cc(F)ccc1Oc1cncnc1N1CC2(CCN(C[C@@H]3CC[C@@H](NS(=O)(=O)C4COC4)CO3)CC2)C1` [Example 32, N-((3R,6S)-6-((2-(5-(2-((3R,5R)-3,5-Dimethylmorpholine-4-carbonyl)-4-fluorophenoxy)pyrimidin-4-yl)-2,7-diazaspiro[3.5]nonan-7-yl)methyl)tetrahydro-2H-pyran-3-yl)oxetane-3-sulfonamide], the IC50 was < 100 nM. For the compound `CCS(=O)(=O)N[C@@H]1CC[C@@H](CN2CCC3(CC2)CN(c2ncncc2Oc2ccc(F)cc2C(=O)N(CCOC)C(C)C)C3)OC1` [Example 35, 2-((4-(7-(((2S,5R)-5-(Ethylsulfonamido)tetrahydro-2H-pyran-2-yl)methyl)-2,7-diazaspiro[3.5]nonan-2-yl)pyrimidin-5-yl)oxy)-5-fluoro-N-isopropyl-N-(2-methoxyethyl)benzamide], the IC50 is < 100 nM. Consider `CCS(=O)(=O)N[C@@H]1CC[C@@H](CN2CCC3(CC2)CN(c2ncncc2Oc2ccc(F)cc2C(=O)N2[C@H](C)CCC[C@@H]2C)C3)OC1` [Example 36, N-((3R,6S)-6-((2-(5-(2-((2S,6R)-2,6-Dimethylpiperidine-1-carbonyl)-4-fluorophenoxy)pyrimidin-4-yl)-2,7-diazaspiro[3.5]nonan-7-yl)methyl)tetrahydro-2H-pyran-3-yl)ethanesulfonamide], for which the IC50 is < 100 nM. Next, `CCNC(=O)N[C@@H]1CC[C@@H](CN2CCC3(CC2)CN(c2ncncc2Oc2ccc(F)cc2C(=O)N(CC)C(C)C)C3)OC1` [Example 39, N-Ethyl-2-((4-(7-(((2S,5R)-5-(3-ethylureido)tetrahydro-2H-pyran-2-yl)methyl)-2,7-diazaspiro[3.5]nonan-2-yl)pyrimidin-5-yl)oxy)-5-fluoro-N-isopropylbenzamide]: < 100 nM; `C[C@H]1COCCN1C(=O)c1cc(F)ccc1Oc1cncnc1N1CC2(CCN(C[C@@H]3CC[C@@H](NS(=O)(=O)C4CC4)CO3)CC2)C1` [Example 40, N-((3R,6S)-6-((2-(5-(4-Fluoro-2-((S)-3-methylmorpholine-4-carbonyl)phenoxy)pyrimidin-4-yl)-2,7-diazaspiro[3.5]nonan-7-yl)methyl)tetrahydro-2H-pyran-3-yl)cyclopropanesulfonamide]: < 100 nM; `CCN(C(=O)c1cc(F)ccc1Oc1cncnc1N1CC2(CCN(C[C@@H]3CC[C@@H](NC(=O)NCC4CC4)CO3)CC2)C1)C(C)C` [Example 42, 2-((4-(7-(((2S,5R)-5-(3-(Cyclopropylmethyl)ureido)tetrahydro-2H-pyran-2-yl)methyl)-2,7-diazaspiro[3.5]nonan-2-yl)pyrimidin-5-yl)oxy)-N-ethyl-5-fluoro-N-isopropylbenzamide]: < 100 nM. In the case of `CCS(=O)(=O)N[C@@H]1CC[C@@H](CN2CCC3(CC2)CN(c2ncncc2Oc2ccc(F)cc2C(=O)N(C(C)C)[C@@H]2CCOC2)C3)OC1` [Example 46, 2-((4-(7-(((2S,5R)-5-(Ethylsulfonamido)tetrahydro-2H-pyran-2-yl)methyl)-2,7-diazaspiro[3.5]nonan-2-yl)pyrimidin-5-yl)oxy)-5-fluoro-N-isopropyl-N-((R)-tetrahydrofuran-3-yl)benzamide], the IC50 is < 100 nM. Next, `CCS(=O)(=O)N[C@@H]1CC[C@@H](CN2CCC3(CC2)CN(c2ncncc2Oc2ccc(F)cc2C(=O)N(C(C)C)C2COC2)C3)OC1` [Example 48, 2-((4-(7-(((2S,5R)-5-(Ethylsulfonamido)tetrahydro-2H-pyran-2-yl)methyl)-2,7-diazaspiro[3.5]nonan-2-yl)pyrimidin-5-yl)oxy)-5-fluoro-N-isopropyl-N-(oxetan-3-yl)benzamide]: < 100 nM. For `COCCN(C(=O)c1cc(F)ccc1Oc1cncnc1N1CC2(CCN(C[C@@H]3CC[C@@H](NS(=O)(=O)C4CC4)CO3)CC2)C1)C(C)C` [Example 51, 2-((4-(7-(((2S,5R)-5-(Cyclopropanesulfonamido)tetrahydro-2H-pyran-2-yl)methyl)-2,7-diazaspiro[3.5]nonan-2-yl)pyrimidin-5-yl)oxy)-5-fluoro-N-isopropyl-N-(2-methoxyethyl)benzamide], the IC50 was < 100 nM.
